We go through five compounds from patent US20140303199A1, “INHIBITORS OF RGS PROTEINS” (priority 2013, published 2014).

For experiment [1], the target named is T1, RGS4(WT) (Rattus norvegicus, UniProt P49799).
T1 sequence (P49799 51-205): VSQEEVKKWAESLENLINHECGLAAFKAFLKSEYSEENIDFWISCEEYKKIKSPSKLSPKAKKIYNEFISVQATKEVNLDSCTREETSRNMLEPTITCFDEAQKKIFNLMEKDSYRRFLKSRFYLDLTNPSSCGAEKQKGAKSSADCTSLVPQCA
Kind of experiment: Malachite green assay of RGS4-stimulated Gαi GTPase activity. As to conditions: for Mean absorbance at 642 nm, positive control wells: 10 μM final; for Inhibition of RGS4 (in words): screen hits; for Inhibition of RGS4 (in words) / IC50: malachite green assay; for IC50: RGS4 200 nM final, concentration-response, read-out: IC50 against RGS4(WT). The class given is biochemical.
Description: Stock solutions of each of the 3 components of the developing solution were prepared, which were stable for long-term storage [19]. Malachite solution was prepared by first diluting concentrated sulfuric acid 1:5 in distilled water. Once the solution cooled to 25° C., malachite solution was prepared by dissolving 0.44 g of malachite green oxalate (Alfa Aesar; Ward Hill, Mass.) in 360 mL diluted acid and stored at 25° C. Molybdate solution, containing 7.5% ammonium molybdate tetrahydrate (Alfa Aesar; Ward Hill, Mass.), was prepared in distilled water and stored at 4° C. Tween-20 solution, used to maintain solubility of the phosphate-molybdate-malachite complex, was prepared as 11% (v/v) Tween-20 in distilled water. On the day of use, 2.5 mL molybdate solution and 0.2 mL Tween-20 solution were added to 10 mL of malachite solution and mixed quickly to avoid precipitation of malachite. The final ratio of the Developing Solution (DS) was 50:12.5:1 (malachite:molybdate:Tween-20). The peak absorbance was determined by a 2 nm step wavelength scan, using 50 μM NaH2PO4 at pH 8.0 as the negative control.
The malachite green assay involved 5 components, with a 1 min spin at 100×g between each addition. For time-course experiments, the first component was 10 μL Malachite Green Assay Buffer (MGB; 50 mM HEPES at pH 7.5, 100 mM NaCl, 5 mM EDTA, 10 mM MgCl2, 0.01% lubrol) into a clear 384-well plate (ThermoFisher Scientific; Waltham, Mass.) using a MultiDrop dispenser (PerkinElmer; Waltham, Mass.). The second component dispensed was 10 μL of a 4× stock of RGS4, typically 200 nM to 1.6 μM with the target final concentration of 50 nM to 400 nM, diluted in MGB. After a 30 min incubation, 10 μL of the third component, 4× stock of Gαi diluted in MGB, was dispensed (typically between 4 μM and 80 μM with a desired final concentration 1 μM to 20 μM). After a minimum of 5 min incubation, 10 μL of the fourth component, 4×GTP diluted in MGB, was added at 10 minute intervals from 1-110 minutes. 4×GTP concentrations varied between 0.2 mM and 2.4 mM, with a target final concentration of 50 μM to 600 μM. To terminate the reaction, 10 μL of DS was added to each well using a Microlab Star liquid handling robot (Hamilton Robotics; Reno, Nev.), to achieve a final ratio 4:1 (sample:developing solution). Following the spin, the plate was incubated for 25 min before being read at 642 nm for absorbance using an EnVision plate reader (PerkinElmer; Waltham, Mass.).
Malachite green compound activity and Z-factor analysis conducted in 384-well plates utilized optimized parameters as discerned from the time-course experiments. 10 μL of 4× compound or MGB was dispensed into appropriate wells. For single point assay, 160 μM compound was used, and for dose-response assays a series of ½ log dilutions from 100 μM final to 316 μM final was used. 10 μL of the optimized 4×RGS4 concentration, 0.8 μM in MGB, was dispensed into all wells. After a spin down at 100×g for 1 min, the assay plate was incubated at 25° C. for 30 min. 10 μL of the optimized Gαi concentration, 20 μM in MGB, was dispensed to each well and incubated at 25° C. for 5 min. 10 μL of the optimized 4×GTP, 600 μM in MGB, was then added to the samples. After spinning the samples down at 100×g for 1 min, the samples were incubated at 25° C. for 75 min. The samples were then stamped with 10 μL of DS and incubated for 25 min before reading absorbance at 642 nm.
1536-well Z-factor analysis and compound library screen were accomplished largely as described for 384-well plates. Initial screen and Z-factor determination was performed in a final concentration of 5.5% dimethylsulfoxide. For 1536-well assays NUNC clear plates were used (ThermoFisher Scientific; Waltham, Mass.). Each component was dispensed as 1.8 μL samples into each well using a FlexDrop (PerkinElmer; Waltham, Mass.).

Experiment [2] addresses T2, RGS4(Δ7) mutant (Rattus norvegicus, UniProt P49799, C132A/C148A/C183A/C197A/C204A/C71A/C95A).
T2 construct: fused to the N-terminus of an RGS4 construct containing amino acids 51-205; 10x His tag (N, cleaved yes); TEV protease recognition site (N, cleaved yes); made in house; host or cells: E. coli BL21-DE3 (vector pMALC2H10T)
As to the kind of experiment: Malachite green assay counter screen against cysteine-null RGS4(Δ7) mutant. The class given is biochemical. Particulars: for Inhibition of RGS4(Δ7) mutant (in words): screen hits; for IC50: concentration-response. From the text:
Rat RGS4, sharing 97% sequence identity with human RGS4, and the cysteine to alanine mutant were expressed as fusion proteins of maltose binding protein (MBP), a 10× His tag, and a TEV protease recognition site fused to the N-terminus of an RGS4 construct containing amino acids 51-205, in the vector pMALC2H10T in BL21-DE3 bacteria (Stratagene; Santa Clara, Calif.). The single cysteine-null Δ51-RGS4 construct was generated by site-directed mutagenesis as described previously Expression and purification were performed as described previously. Purified protein was incubated with TEV protease at a molar ratio of 10:1 (fusion protein:TEV protease) overnight at 4° C. The cleaved Δ51-RGS4 was then isolated by purification over an ANX column (GE Healthcare; Fairfield, Conn.) in 50 mM HEPES at pH6.8 and 50 mM NaCl. The flow through, containing the ˜99% Δ51-RGS4 as determined by SDS-PAGE gel, was then collected and concentrated using a YM-10 centrifugal concentrator (Millipore; Billerica, Mass.). The concentration of Δ51-RGS4 was calculated based on the absorbance at 280 nm utilizing a Take-3 plate (Biotek; Winnoski, Vt.) in a Synergy 2 plate reader (Biotek; Winnoski, Vt.).
Stock solutions of each of the 3 components of the developing solution were prepared, which were stable for long-term storage. Malachite solution was prepared by first diluting concentrated sulfuric acid 1:5 in distilled water. Once the solution cooled to 25° C., malachite solution was prepared by dissolving 0.44 g of malachite green oxalate (Alfa Aesar; Ward Hill, Mass.) in 360 mL diluted acid and stored at 25° C. Molybdate solution, containing 7.5% ammonium molybdate tetrahydrate (Alfa Aesar; Ward Hill, Mass.), was prepared in distilled water and stored at 4° C. Tween-20 solution, used to maintain solubility of the phosphate-molybdate-malachite complex, was prepared as 11% (v/v) Tween-20 in distilled water. On the day of use, 2.5 mL molybdate solution and 0.2 mL Tween-20 solution were added to 10 mL of malachite solution and mixed quickly to avoid precipitation of malachite. The final ratio of the Developing Solution (DS) was 50:12.5:1 (malachite:molybdate:Tween-20). The peak absorbance was determined by a 2 nm step wavelength scan, using 50 μM NaH2PO4 at pH 8.0 as the negative control.
Malachite green compound activity and Z-factor analysis conducted in 384-well plates utilized optimized parameters as discerned from the time-course experiments. 10 μL of 4× compound or MGB was dispensed into appropriate wells. For single point assay, 160 μM compound was used, and for dose-response assays a series of ½ log dilutions from 100 μM final to […] final was used. 10 μL of the optimized 4×RGS4 concentration, 0.8 μM in MGB, was dispensed into all wells. After a spin down at 100×g for 1 min, the assay plate was incubated at 25° C. for 30 min. 10 μL of the optimized Gαi concentration, 20 μM in MGB, was dispensed to each well and incubated at 25° C. for 5 min. 10 μL of the optimized 4×GTP, 600 μM in MGB, was then added to the samples. […] The samples were then stamped with 10 μL of DS and incubated for 25 min before reading absorbance at 642 nm.
Initial hits were confirmed by single point malachite green assay at 40 μM compound. […] This control would detect compounds that either interrupt the detected complex or reduce the molybdate resulting in peak shift outside of the desired wavelength. […] Compounds that increased the predicted absorbance were carried through, as they would indicate false negatives in the assay. […]
Background: The purpose of a counterscreen is to sort out artefacts and off-target activity.

Structures can show the parent of a compound that is named as a salt.

T2 sequence (P49799 51-205 C71A/C95A/C132A/C148A/C183A/C197A/C204A limits assumed): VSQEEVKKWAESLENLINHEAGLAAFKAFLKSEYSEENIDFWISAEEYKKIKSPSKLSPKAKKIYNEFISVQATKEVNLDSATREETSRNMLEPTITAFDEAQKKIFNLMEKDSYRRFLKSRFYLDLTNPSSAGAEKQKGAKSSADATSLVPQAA

As for `Cc1ccc(-n2sc(=O)n(Cc3ccc(F)cc3)c2=O)cc1` [CCG-50014, reference compound], the “Mean absorbance at 642 nm, positive control wells” value in experiment [1] (384-well plate, 192 wells, negative control mean 1.74) stood at 0.92; in experiment [1] (1536-well plate, 5.5% DMSO, 128 wells, negative control mean 0.67), 0.30.

For the compound `CC(=O)Oc1c2c(c(CC=C(C)C)c3c1C(=O)C1=C[C@@H]4C[C@H]5C(C)(C)OC(C/C=C(\C)C(=O)O)(C4=O)[C@@]15O3)O[C@](C)(CCC=C(C)C)C=C2` [UI-2034, acetyl-isogambogic acid], the “Inhibition of RGS4 (in words)” value in experiment [1] was “inhibitors”. Besides, the “Inhibition of RGS4(Δ7) mutant (in words)” value in experiment [2] is “inhibitors”.

Broadly, the IC50 is the point on the concentration scale where inhibition reaches its midpoint. For `C[n+]1cc2c3c(ccc2c2ccc4cc5c(cc4c21)OCO5)OCO3` [UI-5, sanguinarium sulfate], the 50% inhibitory concentration (IC50) worked out at 126 µM in experiment [1] and 454 µM in experiment [2].

With `CC1=C(O)C(=O)C=C2C1=CC=C1[C@@]2(C)CC[C@@]2(C)[C@@H]3C[C@](C)(C(=O)O)CC[C@]3(C)CC[C@]12C` [UI-1590, celastrol], the IC50 in experiment [1] was found to be 0.724 µM; in experiment [2] it was 88 µM.

Turning to `CC(C)=CCC[C@]1(C)C=Cc2c(O)c3c(c(CC=C(C)C)c2O1)O[C@]12C(=C[C@@H]4C[C@H]1C(C)(C)O[C@@]2(C/C=C(/C)C(=O)O)C4=O)C3=O` [UI-1907, gambogic acid], in experiment [1], the IC50 amounted to 16 µM and the “Inhibition of RGS4 (in words)” value is recorded as “inhibitors”. Moreover, in experiment [2], the IC50 came to 51 µM and the “Inhibition of RGS4(Δ7) mutant (in words)” value was “inhibitors”.
